Measurements reported in ChEMBL document CHEMBL3351363 (J Med Chem, 2014).

Legend:
[1] = target: Muscarinic acetylcholine receptor M3 (Homo sapiens, UniProt P20309); assay: Displacement of [3H]NMS from human M3 receptor expressed in CHO cells by microplate scintillation counting based radioligand binding assay; format: cell-based
[2] = target: T1, Muscarinic acetylcholine receptor M1 (Homo sapiens) (UniProt P11229); assay: Agonist activity at human M1 receptor expressed in HEK293T cells by BRET based Gq protein engagement assay relative carbachol; format: cell-based; conditions: HEK-293T
T1 sequence (whole entry): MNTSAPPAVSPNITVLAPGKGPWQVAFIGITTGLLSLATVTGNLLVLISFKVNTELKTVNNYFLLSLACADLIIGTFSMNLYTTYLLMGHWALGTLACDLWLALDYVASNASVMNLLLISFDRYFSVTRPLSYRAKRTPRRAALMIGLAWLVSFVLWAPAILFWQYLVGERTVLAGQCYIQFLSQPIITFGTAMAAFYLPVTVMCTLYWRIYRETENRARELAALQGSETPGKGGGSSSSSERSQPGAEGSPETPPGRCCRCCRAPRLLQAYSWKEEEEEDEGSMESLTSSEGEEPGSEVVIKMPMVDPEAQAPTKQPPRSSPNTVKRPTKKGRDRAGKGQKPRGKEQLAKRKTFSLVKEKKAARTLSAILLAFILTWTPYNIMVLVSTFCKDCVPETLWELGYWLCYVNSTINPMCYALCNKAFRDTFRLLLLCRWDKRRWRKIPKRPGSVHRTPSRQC

[3] = target: T1, Muscarinic acetylcholine receptor M1 (Homo sapiens); assay: Agonist activity at human M1 receptor expressed in HEK293T cells by BRET based Gq protein activation assay relative to carbachol; format: cell-based; conditions: HEK-293T
[4] = target: T1, Muscarinic acetylcholine receptor M1 (Homo sapiens); assay: Agonist activity at human M1 receptor expressed in HEK293T cells by BRET based beta-arrestin engagement assay relative to carbachol; format: cell-based; conditions: HEK-293T
[5] = target: T2, Muscarinic acetylcholine receptor M4 (Homo sapiens) (UniProt P08173); assay: Agonist activity at human M4 receptor expressed in HEK293T cells by BRET based beta-arrestin engagement assay relative to carbachol; format: cell-based; conditions: HEK-293T
T2 sequence (whole entry): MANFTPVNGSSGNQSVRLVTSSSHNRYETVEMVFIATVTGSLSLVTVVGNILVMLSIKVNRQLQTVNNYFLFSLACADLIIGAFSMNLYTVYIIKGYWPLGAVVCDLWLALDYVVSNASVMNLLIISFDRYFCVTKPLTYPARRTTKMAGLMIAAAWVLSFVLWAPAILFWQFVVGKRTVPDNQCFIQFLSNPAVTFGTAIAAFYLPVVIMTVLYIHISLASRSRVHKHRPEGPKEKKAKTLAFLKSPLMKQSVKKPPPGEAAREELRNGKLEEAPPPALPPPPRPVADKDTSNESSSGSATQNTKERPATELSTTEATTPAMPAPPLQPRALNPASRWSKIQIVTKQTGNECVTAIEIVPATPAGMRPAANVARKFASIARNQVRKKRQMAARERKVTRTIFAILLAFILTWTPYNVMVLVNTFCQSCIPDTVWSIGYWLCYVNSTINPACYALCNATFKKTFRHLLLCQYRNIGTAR

[6] = target: T2, Muscarinic acetylcholine receptor M4 (Homo sapiens); assay: Agonist activity at human M4 receptor expressed in HEK293T cells by BRET based Gi protein activation assay relative to carbachol; conditions: HEK-293T
[7] = target: T3, Muscarinic acetylcholine receptor M1 (Homo sapiens, UniProt P11229); assay: Displacement of [3H]NMS from human M1 receptor expressed in CHO cells by microplate scintillation counting based radioligand binding assay; format: cell-based
T3 sequence (P11229 whole entry): T1 sequence (whole entry)

[8] = target: T4, Muscarinic acetylcholine receptor M2 (Homo sapiens, UniProt P08172); assay: Displacement of [3H]NMS from human M2 receptor expressed in CHO cells by microplate scintillation counting based radioligand binding assay; format: cell-based
T4 sequence (P08172 whole entry): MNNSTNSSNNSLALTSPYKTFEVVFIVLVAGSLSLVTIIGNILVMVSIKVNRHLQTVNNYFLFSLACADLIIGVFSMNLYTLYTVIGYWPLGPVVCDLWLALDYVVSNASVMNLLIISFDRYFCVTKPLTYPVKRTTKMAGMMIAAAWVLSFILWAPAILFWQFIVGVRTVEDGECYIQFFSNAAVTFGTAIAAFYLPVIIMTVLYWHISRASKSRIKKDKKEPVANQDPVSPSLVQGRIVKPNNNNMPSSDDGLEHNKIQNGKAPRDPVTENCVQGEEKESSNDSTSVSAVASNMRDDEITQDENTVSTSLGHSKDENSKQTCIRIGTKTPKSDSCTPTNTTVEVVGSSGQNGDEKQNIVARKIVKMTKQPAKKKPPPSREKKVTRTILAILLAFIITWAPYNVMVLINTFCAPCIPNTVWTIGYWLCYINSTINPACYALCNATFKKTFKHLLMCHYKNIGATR

[9] = target: T5, Muscarinic acetylcholine receptor M4 (Homo sapiens, UniProt P08173); assay: Displacement of [3H]NMS from human M4 receptor expressed in CHO cells by microplate scintillation counting based radioligand binding assay; format: cell-based
T5 sequence (P08173 whole entry): T2 sequence (whole entry)

[10] = target: T6, Muscarinic acetylcholine receptor M5 (Homo sapiens, UniProt P08912); assay: Displacement of [3H]NMS from human M5 receptor expressed in CHO cells by microplate scintillation counting based radioligand binding assay; format: cell-based
T6 sequence (P08912 whole entry): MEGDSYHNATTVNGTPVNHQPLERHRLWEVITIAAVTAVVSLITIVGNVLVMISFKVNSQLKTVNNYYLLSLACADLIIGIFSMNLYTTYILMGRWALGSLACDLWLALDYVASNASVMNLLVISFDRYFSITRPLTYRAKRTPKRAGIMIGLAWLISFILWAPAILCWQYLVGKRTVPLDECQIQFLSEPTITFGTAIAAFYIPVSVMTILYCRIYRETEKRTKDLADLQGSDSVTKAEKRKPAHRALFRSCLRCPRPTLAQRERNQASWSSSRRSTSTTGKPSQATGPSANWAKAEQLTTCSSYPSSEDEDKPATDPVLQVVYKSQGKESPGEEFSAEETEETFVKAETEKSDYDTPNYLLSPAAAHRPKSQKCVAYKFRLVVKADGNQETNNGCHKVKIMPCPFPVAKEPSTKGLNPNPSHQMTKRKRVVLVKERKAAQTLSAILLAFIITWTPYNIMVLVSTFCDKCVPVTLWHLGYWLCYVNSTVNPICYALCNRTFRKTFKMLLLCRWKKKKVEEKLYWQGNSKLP

[11] = target: T3, Muscarinic acetylcholine receptor M1; format: cell-based, HEK-293T
[12] = target: T3, Muscarinic acetylcholine receptor M1; assay: Agonist activity at human M1 receptor expressed in HEK293T cells by BRET based Gq protein activation assay; format: cell-based, HEK-293T
[13] = target: T3, Muscarinic acetylcholine receptor M1; format: cell-based, HEK-293T; remark: listed apart in the source
[14] = target: T5, Muscarinic acetylcholine receptor M4; assay: Agonist activity at human M4 receptor expressed in HEK293T cells by BRET based Gq protein engagement assay
[15] = target: T2, Muscarinic acetylcholine receptor M4 (Homo sapiens); assay: Agonist activity at human M4 receptor expressed in HEK293T cells by BRET based Gq protein engagement assay relative to carbachol; format: cell-based; conditions: HEK-293T
[16] = target: T5, Muscarinic acetylcholine receptor M4; assay: Antagonist activity at human M4 receptor expressed in HEK293T cells assessed as inhibition of carbachol-induced response by BRET based Gq protein engagement assay; format: cell-based, HEK-293T
[17] = target: T2, Muscarinic acetylcholine receptor M4 (Homo sapiens); assay: Antagonist activity at human M4 receptor expressed in HEK293T cells assessed as inhibition of carbachol-induced response by BRET based Gq protein engagement assay relative to untreated control; format: cell-based; conditions: HEK-293T
[18] = target: T5, Muscarinic acetylcholine receptor M4; assay: Agonist activity at human M4 receptor expressed in HEK293T cells by BRET based Gq protein activation assay
[19] = target: T5, Muscarinic acetylcholine receptor M4; assay: Antagonist activity at human M4 receptor expressed in HEK293T cells assessed as inhibition of carbachol-induced response by beta-arrestin engagement assay; format: cell-based, HEK-293T
[20] = target: T2, Muscarinic acetylcholine receptor M4 (Homo sapiens); assay: Antagonist activity at human M4 receptor expressed in HEK293T cells assessed as inhibition of carbachol-induced response by beta-arrestin engagement assay relative to untreated control; format: cell-based; conditions: HEK-293T
[21] = target: T3, Muscarinic acetylcholine receptor M1
[22] = target: T5, Muscarinic acetylcholine receptor M4
[23] = target: T2, Muscarinic acetylcholine receptor M4 (Homo sapiens); assay: Antagonist activity at human M4 receptor expressed in HEK293T cells assessed as inhibition of carbachol-induced response by BRET based Gi protein activation assay relative to untreated control; conditions: HEK-293T
[24] = target: T3, Muscarinic acetylcholine receptor M1; assay: Agonist activity at human M1 receptor expressed in HEK293T cells by BRET based Gq protein engagement assay
[25] = target: T3, Muscarinic acetylcholine receptor M1; assay: Agonist activity at human M1 receptor expressed in HEK293T cells by BRET based beta-arrestin engagement assay

Muscarinic acetylcholine receptor M3, sequence (P20309 whole entry): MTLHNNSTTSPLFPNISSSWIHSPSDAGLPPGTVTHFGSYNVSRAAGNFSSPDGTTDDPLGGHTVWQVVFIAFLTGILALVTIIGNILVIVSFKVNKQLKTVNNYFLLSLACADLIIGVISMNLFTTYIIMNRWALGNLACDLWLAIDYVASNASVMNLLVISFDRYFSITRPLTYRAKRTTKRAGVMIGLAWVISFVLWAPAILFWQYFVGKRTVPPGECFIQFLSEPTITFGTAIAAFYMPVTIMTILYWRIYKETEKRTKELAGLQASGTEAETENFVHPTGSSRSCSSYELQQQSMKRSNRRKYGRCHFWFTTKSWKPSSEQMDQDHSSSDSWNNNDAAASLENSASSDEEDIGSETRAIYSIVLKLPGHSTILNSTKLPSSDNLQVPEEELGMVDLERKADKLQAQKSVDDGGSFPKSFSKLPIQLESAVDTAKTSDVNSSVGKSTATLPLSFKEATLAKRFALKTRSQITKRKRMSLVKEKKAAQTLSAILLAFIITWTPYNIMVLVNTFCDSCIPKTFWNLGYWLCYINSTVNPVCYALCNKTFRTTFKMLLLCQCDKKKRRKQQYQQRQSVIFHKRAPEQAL

Row | SMILES | Ki [1] | Emax [2] | Emax [3] | Emax [4] | Emax [6] | Ki [7] | Ki [8] | Ki [9] | Ki [10] | IC50 [11] | EC50 [12] | IC50 [13] | EC50 [14] | Emax [15] | IC50 [16] | Imax [17] | EC50 [18] | IC50 [19] | Imax [20] | IC50 [21] | other results
1 | CCCCCCOc1nsnc1C1=CCCN(C)C1 [XANOMELINE] | 7.76 nM | 54% | 77% | 95% | 94% | – | – | – | – | – | – | – | – | – | – | – | – | – | – | – | Emax [5]: 42%
2 | CN1CCC=C(c2nsnc2OCCCCCC2CCN(CCCN3C(=O)CCc4ccccc43)CC2)C1 | 4.68 nM | < 0% | 13% | – | 27% | 6.76 nM | 11 nM | 7.94 nM | 5.62 nM | 5370 nM | 20.4 nM | 646 nM | 7080 nM | < 0% | 447 nM | < 100% | 30.9 nM | 355 nM | < 100% | 4270 nM | IC50 [22]: 631 nM; Imax [23]: < 100%
3 | CN1CCC=C(c2nsnc2OCCCCCCCC2CCN(CCCN3C(=O)CCc4ccccc43)CC2)C1 | 0.794 nM | 42% | 25% | 42% | 40% | 0.912 nM | 1.38 nM | 0.891 nM | 2.29 nM | 380 nM | 41.7 nM | 741 nM | 18.6 nM | 18% | 407 nM | 92% | 35.5 nM | 145 nM | 14% | 21.9 nM | EC50 [24]: 166 nM; EC50 [25]: 174 nM; IC50 [22]: 1860 nM; Imax [23]: 60%
